Measured values taken from patent US9409864B2, “Sulfonamide TRPA1 receptor antagonists” (ARIO PHARMA LIMITED, priority 2013, dated 2016).
Where two headings read alike, the source gives them in different places.

How the values were obtained:
[1] = target: T1, native human TRPA1 receptors (Homo sapiens, UniProt O75762); experiment: PF-4840154 (1 μM)-induced Ca2+ fluorescence measurements in A549 cell line; type: cell-based; settings: for inhibition at 10 µM: 10 μM compound against 1 μM PF-4840154, A549 cells; for IC50: against PF-4840154 (1 μM)-evoked [Ca2+]i mobilization, A549 cells
T1 construct: stably expressing native human TRPA1 receptors were used; endogenous in cells; host or cells: A549 human lung adenocarcinoma epithelial cell line
Protocol: PF-4840154 (1 μM)-Induced Ca^2+ Fluorescence Measurements in A549 Cell Line
Human lung adenocarcinoma epithelial cell line (A549) stably expressing native human TRPA1 receptors were used. The cells were cultured in medium consisting of Eagle's minimal essential medium (EMEM) supplemented with 10% fetal bovine serum (FBS), penicillin (100 IU/ml), streptomycin ([…]), L-glutamine (2 mM), sodium bicarbonate (2.5 g/L) and HEPES (24 mM). Cells were kept at 37° C. in 5% CO2/humidified air. For the experiments the cells were seeded at a density of 16,000 cells/well into 96-well black, clear-bottom plates. After 24 hours incubation the cells were loaded with medium supplemented with 2.5 mM probenecid, 3 μM of the calcium sensitive fluorescent dye Fluo-4 AM and 0.01% pluronic acid, for 30 min at 37° C. Afterwards the loading solution was aspirated and 100 μl/well of assay buffer: Hank's Balanced Salt Solution (HBSS) supplemented with 2.5 mM probenecid and 500 μM Brilliant Black (Aldrich) was added. Stock solutions (100 mM) of ligands were made in Dimethyl Sulfoxide (DMSO) and stored at −20° C. Serial dilutions of ligands for experimental use were made in HBSS buffer. After placing both plates (cell culture and compound plate) into the FlexStation II (Molecular Device, Union City, Calif. 94587, US), fluorescence changes were measured. On-line additions were carried out in a volume of […]. To facilitate drug diffusion into the wells in antagonist type experiments, the studies were performed at 36.5° C. and three cycles of mixing (25 μl from each well moved up and down 3 times) were performed immediately after antagonist injection to the wells. All exemplified compounds were tested alone (to address residual agonistic activity) and against 1 μM of PF-4840154 to address inhibitory activity at the initial concentration of 10 μM. For selected examples the entire inhibitory concentration-response curves were constructed and the IC50 value calculated.
PF-4840154 (1 μM) increased [Ca^2+] in the vast majority (95%) of cultured cells which were thereby identified as TRPA1 expressing cells.

[2] = test system: PF-4840154-induced mechanical hyperalgesia in rats; experiment: Agonist (PF-4840154)-induced mechanical hyperalgesia in rats; type: in vivo; settings: Rattus norvegicus, 30 μmol/kg oral, PF-4840154 0.05 nmol/50 μl/paw intraplantar
Description: Agonist (PF-4840154)-Induced Mechanical Hyperalgesia in Rats
The method is used to investigate the anti-hyperalgesic effects of the compounds listed in the present invention following agonist (PF-4840154)-induced hyperalgesic responses. The activity is indicative of TRPA1 receptor occupancy following oral dosing. Specifically, male SD rats (Charles River, Italy) weighing 70-100 g. were used. The anti-hyperalgesic effects were investigated using the electronic dynamometer test. PF-4840154 (Sigma, USA) was used to induce mechanical hyperalgesia. Local, intraplantar injection of PF-4840154 at 0.05 nmol/50 μl/paw caused the reduction of the hind paw withdrawal response induced by mechanical stimuli. Mechanical stimulation was induced in basal condition and 30, 60, 120, 180 and 240 minutes after the oral administration of the antagonists dissolved in 2.5% DMSO and 30% Solutol. Compounds were orally administered (30 μmol/kg/10 ml) to rats 1 hour before the injection of PF-4840154 into the plantar surface of a rat's hind using a micro syringe.

[3] = test system: oxaliplatin-induced mechanical hyperalgesia in rats; experiment: Oxaliplatin-induced mechanical hyperalgesia in rats; type: in vivo; settings: Rattus norvegicus, 168 h, 30 μmol/kg oral, 7 days post i.v. oxaliplatin 2.5 mg/kg
Protocol: Oxaliplatin-Induced Mechanical Hyperalgesia in Rats
The method described by Nassini et al. (Pain, 2011, 152(7), 1621-31) was used with minor modifications. Restrained rats were treated with a single intravenous bolus injection of oxaliplatin (2.5 mg/kg) dissolved in normal saline. This approach was sufficient to elicit reproducible allodynic behaviour evident 3 days post injection and during the day thereafter. For convenience all acute experiments were conducted 7 days post injection when compounds were orally administered at 30 μmol/kg.

[4] = read-out: % of reversal of mechanical allodynia
[5] = read-out: Maximal inhibition (%)

T1 sequence (O75762 whole entry): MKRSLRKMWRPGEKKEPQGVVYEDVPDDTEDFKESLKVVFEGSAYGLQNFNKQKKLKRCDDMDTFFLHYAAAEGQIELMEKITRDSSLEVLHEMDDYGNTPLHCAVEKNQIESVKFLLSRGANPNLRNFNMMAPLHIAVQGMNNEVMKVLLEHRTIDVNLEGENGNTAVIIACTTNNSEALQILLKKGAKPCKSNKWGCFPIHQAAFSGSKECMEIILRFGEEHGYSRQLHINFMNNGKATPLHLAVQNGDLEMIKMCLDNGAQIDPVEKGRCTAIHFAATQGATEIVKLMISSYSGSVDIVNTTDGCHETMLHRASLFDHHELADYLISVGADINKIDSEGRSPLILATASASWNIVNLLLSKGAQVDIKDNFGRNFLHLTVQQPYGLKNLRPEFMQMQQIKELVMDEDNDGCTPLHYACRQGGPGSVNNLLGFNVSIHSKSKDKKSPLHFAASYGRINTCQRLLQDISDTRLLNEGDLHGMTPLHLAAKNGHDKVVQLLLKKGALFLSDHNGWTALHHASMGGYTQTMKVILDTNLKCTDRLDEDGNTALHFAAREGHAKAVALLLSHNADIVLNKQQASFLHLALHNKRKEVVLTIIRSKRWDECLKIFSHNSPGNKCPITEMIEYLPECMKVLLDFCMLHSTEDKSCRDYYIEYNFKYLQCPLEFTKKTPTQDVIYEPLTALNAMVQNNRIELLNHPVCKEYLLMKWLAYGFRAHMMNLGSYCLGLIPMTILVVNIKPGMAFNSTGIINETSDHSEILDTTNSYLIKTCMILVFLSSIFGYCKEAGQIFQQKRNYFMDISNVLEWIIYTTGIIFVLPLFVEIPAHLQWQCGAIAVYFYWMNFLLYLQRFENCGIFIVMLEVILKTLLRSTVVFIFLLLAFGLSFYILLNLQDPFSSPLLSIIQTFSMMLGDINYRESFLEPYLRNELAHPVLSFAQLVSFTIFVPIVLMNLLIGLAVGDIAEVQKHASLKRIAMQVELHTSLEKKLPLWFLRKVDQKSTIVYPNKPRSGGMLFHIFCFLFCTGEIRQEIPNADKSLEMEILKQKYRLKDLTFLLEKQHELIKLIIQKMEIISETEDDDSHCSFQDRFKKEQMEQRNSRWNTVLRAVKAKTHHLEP

Row | Compound | inhibition at 10 µM [1] [%] | IC50 [1] [µM] | inhibition in vivo at 30 µmol/kg [2, 4] [%] | inhibition in vivo at 30 µmol/kg [2, 5] [%] | inhibition in vivo at 30 µmol/kg [3, 4] [%] | inhibition in vivo at 30 µmol/kg [3, 5] [%]
1 | CCN(C1(C(=O)NCc2cc(-c3ccc(C(F)(F)F)cc3)nc(N3CCCC3)c2)CC1)S(=O)(=O)c1ccc(Cl)s1 [Example 34, 1-[(5-chloro-2-thienyl)sulfonyl-ethyl-amino]-N-[[2-pyrrolidin-1-yl-6-[4-(trifluoromethyl)phenyl]-4-pyridyl]methyl]cyclopropanecarboxamide] | 100 | 0.025 | – | – | 71 | 71
2 | C=C(C(=O)NCc1ccnc(-c2ccc(OC(F)(F)F)cc2)c1)N(C)S(=O)(=O)c1ccc(Cl)cc1 [Example 4, 2-[(4-chlorophenyl)sulfonyl-methyl-amino]-N-[[2-[4-(trifluoromethoxy)phenyl]-4-pyridyl]methyl]prop-2-enamide] | 98 | 0.078 | 67 | 67 | – | –
3 | CCOc1cc(CNC(=O)C2(N(CC)S(=O)(=O)c3ccc(Cl)s3)CC2)cc(-c2ccc(C(F)(F)F)cc2)n1 [Example 53, 1-[(5-chloro-2-thienyl)sulfonyl-ethyl-amino]-N-[[2-ethoxy-6-[4-(trifluoromethyl)phenyl]-4-pyridyl]methyl] cyclopropanecarboxamide] | 100 | 0.017 | 89 | 89 | 83 | 83
4 | CCN(C1(C(=O)NCc2ccnc(-c3ccc(OC(F)(F)F)cc3)c2)CC1)S(=O)(=O)c1ccc(F)cc1 [Example 26, 1-[ethyl-(4-fluorophenyl)sulfonyl-amino]-N-[[2-[4-(trifluoromethoxy)phenyl]-4-pyridyl]methyl]cyclopropanecarboxamide] | 100 | 0.151 | 64 | 64 | – | –
5 | CCN(C1(C(=O)NCc2cccc(-c3ccc(C(F)(F)F)cc3)c2)CC1)S(=O)(=O)c1ccc(Cl)cc1 [Example 30, 1-[(4-chlorophenyl)sulfonyl-ethyl-amino]-N-[[3-[4-(trifluoromethyl)phenyl]phenyl]methyl]cyclopropanecarboxamide] | 100 | 0.1 | 82 | 82 | – | –

The next lines start with results.

Row | inhibition at 10 µM [1] [%] | IC50 [1] [µM] | Compound | inhibition in vivo at 30 µmol/kg [2, 4] [%] | inhibition in vivo at 30 µmol/kg [2, 5] [%] | inhibition in vivo at 30 µmol/kg [3, 4] [%] | inhibition in vivo at 30 µmol/kg [3, 5] [%]
6 | 99 | 0.1 | C=C(C(=O)NCc1ccnc(-c2ccc(OC(F)(F)F)cc2)c1)N(CC)S(=O)(=O)c1ccc(Cl)cc1 [Example 5, 2-[(4-chlorophenyl)sulfonyl-ethyl-amino]-N-[[2-[4-(trifluoromethoxy)phenyl]-4-pyridyl]methyl]prop-2-enamide] | 76 | 76 | – | –
7 | 100 | 0.018 | C=C(C(=O)NCc1cc(-c2ccc(C(F)(F)F)cc2)nc(N(C)C)c1)N(CC)S(=O)(=O)c1ccc(F)cc1 [Example 37, N-[[2-dimethylamino-6-[4-(trifluoromethyl)phenyl]-4-pyridyl]methyl]-2-[ethyl-(4-fluorophenyl)sulfonyl-amino]prop-2-enamide] | 95 | 95 | 82 | 82
8 | 100 | 0.016 | C=C(C(=O)NCc1cc(OC)nc(-c2ccc(C(F)(F)F)cc2)c1)N(CC)S(=O)(=O)c1ccc(F)cc1 [Example 40, 2-[ethyl-(4-fluorophenyl)sulfonyl-amino]-N-[[2-methoxy-6-[4-(trifluoromethyl)phenyl]-4-pyridyl]methyl]prop-2-enamide] | – | – | 103 | 103
9 | 100 | 0.02 | C=C(C(=O)NCc1cc(-c2ccc(C(F)(F)F)cc2)nc(N(C)C)c1)N(CC)S(=O)(=O)c1ccc(Cl)s1 [Example 39, 2-[(5-chloro-2-thienyl)sulfonyl-ethyl-amino]-N-[[2-dimethylamino-6-[4-(trifluoromethyl)phenyl]-4-pyridyl]methyl]prop-2-enamide] | – | – | – | –
